In patent US10813890B2, “Pharmaceutical combination” (Gruenenthal GmbH, priority 2010, dated 2020):
Counter-ions that a name gives are not always drawn. Like-named read-outs stand apart in the source and are kept apart here.

Tested on: inflamed rat hind paw
Assay: Randall-Selitto test in rats (carrageenan-induced acute inflammation, mechanical nociceptive threshold)
Conditions: for ED50: Rattus norvegicus, 0.25 h, read-out: ED50 (substance applied alone); for timepoint of peak effect: p. appl., timepoint of first measurement; for timepoint of peak effect / analgesic effect: substance applied alone; for analgesic effect: i.p.

## CC[C@@H](c1cccc(O)c1)[C@@H](C)CN(C)C [tapentadol hydrochloride]
iv
  ED50: 1.75 mg/kg
  timepoint of peak effect: 15 min

## CNC1(c2ccccc2Cl)CCCCC1=O (racemic) [ketamine hydrochloride, (R,S)-ketamine hydrochloride]
ip
  ED50: 20.2 mg/kg
  analgesic effect: dose-dependent analgesic effect
  timepoint of peak effect: 15 min

## CC12CC3CC(C)(C1)CC(N)(C3)C2 [memantine hydrochloride]
ip
  ED50: 19.1 mg/kg
  analgesic effect: dose-dependent analgesic effect
  timepoint of peak effect: 15 min
